Reference: patent US20260027121A1, “LIGAND ACTING ON ADENOSINE RECEPTORS AND COMPOSITION COMPRISING SAME FOR PREVENTION, ALLEVIATION, OR TREATMENT OF OBESITYS” (FUTURE MEDICINE CO., LTD., priority 2022, published 2026)
pKi: −log10 of the molar value.

What was measured:
CIDEA reporter mice = test: qPCR of brown adipocyte markers in brown adipose tissue; assay type: in vivo, mouse; details: BAT, 1 mg kg-1/day, 10 days
Method: Mice were treated with vehicle (CTL), LJ-4378 (LJ, 1 mg kg-1/day), […] (CGS21680, 1 mg kg-1/day), or A3 antagonist (LJ-4433, 1 mg kg-1/day) for 10 days. (A-B) Representative bioluminescence in dorsal and lateral positions (n=3, mean±SEM, ** p<0.01, **** p<0.0001). (C) Representative ex vivo fluorescence image and quantification of fluorescence intensity of BAT and iWAT (n=3, mean±SEM, ** p<0.01, **** p<0.0001). (D) qPCR analysis of UCP1 and CIDEAM RNA expression levels of brown adipose tissue (BAT) (n=3, mean±SEM, * p<0.05, ** p<0.01, *** p<0.001).
qPCR analysis was performed to investigate the adenosine receptor expression levels in brown adipocytes differentiated from immortalized brown adipocyte precursor cells. Primers used for the qPCR analysis are listed in the following [Table 3].

brown adipocytes [1] = test: Immunoblot of PKA downstream proteins (P-HSL, P-CREB) in brown adipocytes; assay type: cell-based, mouse; details: 0.1 μM, 24 hours, FIG. 3D
Method: (§1) Adipocyte precursor cells capable of differentiating into brown adipocytes were isolated from mouse brown adipose tissue. Cells were cultured in Dulbecco's modified Eagle's medium (Welgene, LM001-07) containing 10% fetal bovine serum (FBS, Gibco, 16000044) and 1% Penicillin Streptomycin (Welgene, LS202-02) at 37° C. in a humidified atmosphere with 5% CO2. When the cells reached about 100% confluency, the cells were exposed to a differentiation medium supplemented with 2.5 mM isobutyl methylxanthine (IBMX, Cayman, I5879), 0.125 mM indomethacin (Cayman, 70270), 1 μM dexamethasone (Cayman), 1 μg/mL insulin (Sigma, I9278), and 1 nM triiodothyronine (T3, Cayman, 6028) for 3 days for adipogenesis. Then, the cells were maintained in a growth medium containing 1 μg/mL insulin and 1 nM triiodothyronine (T3) for 3 days.
(§2) In the case of Western blots, the primary antibodies used for Western blots are summarized in [Table 2] above. An anti-rabbit horseradish peroxidase antibody (1:3000, Thermo Fisher, 31460) and an anti-mouse horseradish peroxidase antibody (1:3000, Jackson, 115-035-174) were used as secondary antibodies. All antibodies were diluted in a blocking buffer (5% skimmed milk or 5% bovine serum albumin in TBST). Western blot images were acquired using a Fusion Solo chemiluminescence imaging system (Vilber Lourmat) and analyzed with Evolution Capt software (version 17.03). NIH ImageJ software was used for quantification.

brown adipocytes [2] = test: Lipolysis: glycerol and free fatty acid levels in conditioned medium; assay type: cell-based, mouse; details: 0.1 μM, 24 hours
Method: as §1
The free fatty acid (FFA) levels in the medium were measured using an NEFA reagent (WAKO, 436-91693) according to the manufacturer's product protocol.
Glycerol and free fatty acid (FFA) levels in a medium were measured using a glycerol reagent (Sigma Aldrich, F6428) and a NEFA reagent (WAKO, 436-91693) according to the manufacturer's product protocols.

brown adipocytes [3] = test: Immunoblot of mitochondrial proteins and UCP1 in brown adipocytes; assay type: cell-based, mouse; details: 0.1 μM, 24 hours, FIG. 4D
Method: as §1, §2

[4] = target: T1, A2A adenosine receptor (hA2AR) (Homo sapiens, UniProt P29274); test: Radioligand binding affinity, adherent HEK293 cells stably transfected with hAR cDNA; details: normalized to NECA 10 μM
T1 construct: expressed in transfected cells; host or cells: HEK293 (adherent, stably transfected)
T1 sequence (P29274 whole entry): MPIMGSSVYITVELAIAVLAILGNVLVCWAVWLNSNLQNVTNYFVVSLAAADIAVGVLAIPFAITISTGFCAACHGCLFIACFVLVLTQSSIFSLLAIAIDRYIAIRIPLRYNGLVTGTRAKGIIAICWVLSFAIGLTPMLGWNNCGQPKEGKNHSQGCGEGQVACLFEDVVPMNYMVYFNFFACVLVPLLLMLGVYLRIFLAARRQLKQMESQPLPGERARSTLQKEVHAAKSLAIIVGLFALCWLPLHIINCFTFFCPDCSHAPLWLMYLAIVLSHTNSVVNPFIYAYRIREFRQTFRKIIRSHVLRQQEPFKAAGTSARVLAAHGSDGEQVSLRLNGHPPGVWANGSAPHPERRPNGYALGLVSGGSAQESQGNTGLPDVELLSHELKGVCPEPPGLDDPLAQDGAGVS
Method: (§3) The binding affinity of LJ-4378 and derivatives thereof to A2AAR and A3AR is as shown in the following [Table 1]. All binding affinity experiments were performed using adherent HEK293 cells stably transfected with cDNAs encoding appropriate hAR bonds, and were performed using 1 nM [3H]17, 10 nM [3H]18, or 0.2 nM [3H]16 as radioligands for A2A and A3AR, respectively. Values were normalized to a non-specific binder 5′-N-ethylcarboxamidoadenosine (NECA, 10 μM).

[5] = target: T2, A3 adenosine receptor (hA3AR) (Homo sapiens, UniProt P0DMS8); test: as above; details: normalized to NECA 10 μM
T2 construct: expressed in transfected cells; host or cells: HEK293 (adherent, stably transfected)
T2 sequence (P0DMS8 1-318): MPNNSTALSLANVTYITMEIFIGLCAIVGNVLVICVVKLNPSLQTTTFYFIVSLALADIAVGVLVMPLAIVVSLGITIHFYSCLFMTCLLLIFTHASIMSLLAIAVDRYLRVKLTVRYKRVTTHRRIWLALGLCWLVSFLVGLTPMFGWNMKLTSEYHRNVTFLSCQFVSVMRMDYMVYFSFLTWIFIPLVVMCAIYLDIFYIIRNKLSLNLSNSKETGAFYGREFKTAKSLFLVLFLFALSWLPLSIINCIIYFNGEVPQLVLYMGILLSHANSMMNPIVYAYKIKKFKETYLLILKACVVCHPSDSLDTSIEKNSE
Method: as §3

Compound | pKi [4] | pKi [5] | other results
CCNC(=O)[C@H]1O[C@@H](n2cnc3c(N)nc(NCCc4ccc(CCC(=O)O)cc4)nc32)[C@H](O)[C@@H]1O [CGS21680, reference compound] | – | – | Cidea mRNA level, fold increase (CIDEA reporter mice): 1.29±0.12 fold; Ucp1 mRNA level, fold increase (CIDEA reporter mice): 1.72±0.17 fold; P-CREB, fold increase (brown adipocytes [1]): 2.00±0.11 fold; P-HSL, fold increase (brown adipocytes [1]): 1.54±0.05 fold; glycerol level in conditioned medium, fold change (brown adipocytes [2]; FIG. 3B): 1.51±0.08 fold; FFA level in conditioned medium, fold change (brown adipocytes [2]; FIG. 3C): 1.29±0.09 fold; COXIV, fold increase (brown adipocytes [3]): increased; MCAD, fold increase (brown adipocytes [3]): increased; UCP1, fold increase (brown adipocytes [3]): increased
CC#Cc1nc(N)c2ncn([C@@H]3SC[C@@H](O)[C@H]3O)c2n1 [Compound 9a, (2R,3R,4S)-2-(6-amino-2-(prop-1-yn-1-yl)-9H-purin-9-yl)tetrahydrothiophene-3,4-diol] | 6.93 | 7.19 | –
CC#Cc1nc(NCc2cccc(F)c2)c2ncn([C@@H]3SC[C@@H](O)[C@H]3O)c2n1 [Compound 9b, (2R,3R,4S)-2-(6-((3-fluorobenzyl)amino)-2-(prop-1-yn-1-yl)-9H-purin-9-yl)tetrahydro thiophene-3,4-diol] | 6.11 | 7.52 | –
CC#Cc1nc(NCc2cccc(Cl)c2)c2ncn([C@@H]3SC[C@@H](O)[C@H]3O)c2n1 [Compound 9c, (2R,3R,4S)-2-(6-((3-chlorobenzyl)amino)-2-(prop-1-yn-1-yl)-9H-purin-9-yl)tetrahydro thiophene-3,4-diol] | 6.66 | 8.82 | –
CCC#Cc1nc(N)c2ncn([C@@H]3SC[C@@H](O)[C@H]3O)c2n1 [Compound 9f, (2R,3R,4S)-2-(6-amino-2-(but-1-yn-1-yl)-9H-purin-9-yl)tetrahydrothiophene-3,4-diol] | 7.62 | 7.17 | –
CCC#Cc1nc(NCc2cccc(F)c2)c2ncn([C@@H]3SC[C@@H](O)[C@H]3O)c2n1 [Compound 9g, (2R,3R,4S)-2-(2-(but-1-yn-1-yl)-6-((3-fluorobenzyl)amino)-9H-purin-9-yl)tetrahydrothiophene-3,4-diol] | 6.04 | 8.02 | –
CCC#Cc1nc(NCc2cccc(Cl)c2)c2ncn([C@@H]3SC[C@@H](O)[C@H]3O)c2n1 [Compound 9h, (2R,3R,4S)-2-(2-(but-1-yn-1-yl)-6-((3-chlorobenzyl)amino)-9H-purin-9-yl)tetrahydrothiophene-3,4-diol] | 6.62 | 8.42 | –
CCC#Cc1nc(NCc2cccc(I)c2)c2ncn([C@@H]3SC[C@@H](O)[C@H]3O)c2n1 [Compound 9j, (2R,3R,4S)-2-(2-(but-1-yn-1-yl)-6-((3-iodobenzyl)amino)-9H-purin-9-yl)tetrahydrothiophene-3,4-diol] | 7.24 | 8.07 | –

The next lines start with results.

pKi [4] | pKi [5] | Compound | other results
6.33 | 7.95 | CC#Cc1nc(NCc2cccc(Br)c2)c2ncn([C@@H]3SC[C@@H](O)[C@H]3O)c2n1 [Compound 9d, (2R,3R,4S)-2-(6-((3-bromobenzyl)amino)-2-(prop-1-yn-1-yl)-9H-purin-9-yl)tetrahydro thiophene-3,4-diol] | –
6.92 | 7.70 | CC#Cc1nc(NCc2cccc(I)c2)c2ncn([C@@H]3SC[C@@H](O)[C@H]3O)c2n1 [Compound 9e, (2R,3R,4S)-2-(6-((3-iodobenzyl)amino)-2-(prop-1-yn-1-yl)-9H-purin-9-yl)tetrahydro thiophene-3,4-diol] | –
6.95 | 9.53 | CCC#Cc1nc(NCc2cccc(Br)c2)c2ncn([C@@H]3SC[C@@H](O)[C@H]3O)c2n1 [Compound 9i, (2R,3R,4S)-2-(6-((3-bromobenzyl)amino)-2-(but-1-yn-1-yl)-9H-purin-9-yl)tetrahydrothiophene-3,4-diol] | –
